Earlier results in patent publication US20230150906A1, “DESOXYSCALINE DERIVATIVES WITH MODIFIED MESCALINE-LIKE ACTION” (Mind Medicine, Inc., priority 2021, published 2023).
“Also recorded” adds a separate entry of the source.

How the values were obtained:
5-HT2A receptor = 5-HT2A receptor (Homo sapiens, UniProt P28223)
D2 receptors = D2 receptors (Homo sapiens, UniProt P14416)
5-HT transporter (SERT) = 5-HT transporter (SERT) (Homo sapiens, UniProt P31645)
[1] = humans
[2] = target: serotonin 5-HT2A receptor (Homo sapiens, UniProt P28223)
Sequence of serotonin 5-HT2A receptor (P28223 whole entry): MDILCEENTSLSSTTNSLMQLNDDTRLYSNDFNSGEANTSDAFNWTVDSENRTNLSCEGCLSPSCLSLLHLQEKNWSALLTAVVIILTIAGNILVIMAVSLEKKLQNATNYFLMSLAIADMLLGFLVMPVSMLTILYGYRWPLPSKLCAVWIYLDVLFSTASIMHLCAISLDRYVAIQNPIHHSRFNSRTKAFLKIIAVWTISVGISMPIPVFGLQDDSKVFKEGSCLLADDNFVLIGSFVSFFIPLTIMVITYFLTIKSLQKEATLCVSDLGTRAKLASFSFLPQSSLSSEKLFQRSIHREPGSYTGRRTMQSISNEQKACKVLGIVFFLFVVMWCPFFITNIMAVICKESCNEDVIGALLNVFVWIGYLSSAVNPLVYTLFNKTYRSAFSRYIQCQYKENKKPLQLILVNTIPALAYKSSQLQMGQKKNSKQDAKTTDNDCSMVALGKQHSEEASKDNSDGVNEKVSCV

Sequence of 5-HT2A receptor (P28223 whole entry): as above
Sequence of D2 receptors (P14416 whole entry): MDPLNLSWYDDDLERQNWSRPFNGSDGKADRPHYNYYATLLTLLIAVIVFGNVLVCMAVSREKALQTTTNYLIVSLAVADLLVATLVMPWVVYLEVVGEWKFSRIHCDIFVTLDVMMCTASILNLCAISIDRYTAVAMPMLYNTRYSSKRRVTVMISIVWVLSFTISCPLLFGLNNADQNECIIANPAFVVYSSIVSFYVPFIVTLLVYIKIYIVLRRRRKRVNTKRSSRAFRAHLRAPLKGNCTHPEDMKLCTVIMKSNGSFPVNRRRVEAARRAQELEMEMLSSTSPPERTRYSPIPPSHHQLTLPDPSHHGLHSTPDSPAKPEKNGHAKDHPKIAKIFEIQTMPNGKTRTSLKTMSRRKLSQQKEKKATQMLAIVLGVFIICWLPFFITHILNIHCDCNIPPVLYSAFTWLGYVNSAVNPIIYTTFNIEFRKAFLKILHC
Sequence of 5-HT transporter (SERT) (P31645 whole entry, species assumed): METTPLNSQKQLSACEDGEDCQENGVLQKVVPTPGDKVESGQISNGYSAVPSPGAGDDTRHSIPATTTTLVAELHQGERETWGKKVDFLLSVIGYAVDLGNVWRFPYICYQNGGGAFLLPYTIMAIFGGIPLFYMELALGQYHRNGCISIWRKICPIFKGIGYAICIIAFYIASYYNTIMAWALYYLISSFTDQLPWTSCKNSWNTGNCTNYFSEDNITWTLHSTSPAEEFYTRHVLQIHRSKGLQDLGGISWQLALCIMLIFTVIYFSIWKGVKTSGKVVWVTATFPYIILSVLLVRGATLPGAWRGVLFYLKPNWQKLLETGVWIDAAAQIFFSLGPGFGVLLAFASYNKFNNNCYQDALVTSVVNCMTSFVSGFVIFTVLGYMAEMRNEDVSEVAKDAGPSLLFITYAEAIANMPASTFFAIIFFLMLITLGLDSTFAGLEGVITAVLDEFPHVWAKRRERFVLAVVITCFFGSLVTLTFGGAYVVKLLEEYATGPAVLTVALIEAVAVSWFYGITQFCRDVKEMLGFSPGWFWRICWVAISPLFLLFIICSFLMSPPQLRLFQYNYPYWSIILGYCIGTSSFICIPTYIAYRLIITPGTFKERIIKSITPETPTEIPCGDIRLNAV

Structure (SMILES): COc1cc(CCN)cc(OC)c1C [DESOXY, 3,5-dimethoxy-4-methylphenethylamine]
- psychoactive effects in human (humans; human): has shown psychoactive effects in human

Structure (SMILES): CN(C)CCc1c[nH]c2ccccc12 [DMT, N,N-dimethyltryptamine]
- activity at the 5-HT2A receptor (agonism / stimulation) (5-HT2A receptor): agonists

Structure (SMILES): CCN(CC)C(=O)[C@@H]1C=C2c3cccc4[nH]cc(c34)C[C@H]2N(C)C1 [LSD, lysergic acid diethylamide]
- activity at D2 receptors (D2 receptors): has activity
- activity at the 5-HT2A receptor (agonism / stimulation) (5-HT2A receptor): agonists; also recorded: potently stimulates

Structure (SMILES): CN(C)CCc1c[nH]c2cccc(O)c12 [Psilocin, psilocin]
- activity at the 5-HT2A receptor (agonism / stimulation) (5-HT2A receptor): stimulates
- interaction with the SERT (5-HT transporter (SERT)): inhibits

Structure (SMILES): COc1cc(CCN)cc(OC)c1OC [mescaline]
- affinity for D2 receptors (D2 receptors): no affinity
- plasma half-life [1]: approximately 6 hours
- activity at the 5-HT2A receptor (agonism / stimulation) (5-HT2A receptor): agonists
- dose needed to induce a full psychedelic experience (humans; humans): 200 to 800 mg
- time of peak of subjective effects (humans; humans, psychoactive doses): 4 h
- time until subjective effects appear (humans; humans, psychoactive doses): ≤ 30 min
- duration of subjective effects (humans; humans, psychoactive doses, dose-dependent): 10 to 16 h
- interaction with the SERT (5-HT transporter (SERT)): do not interact
- 5-HT2A receptor ligand strength [2]: very weak
